The record followed here is ChEMBL document CHEMBL1149861, “Inhibition of 15-lipoxygenase-catalysed oxygenation of arachidonic acid by substituted benzoic acids” (Bioorg Med Chem, 2008).

The subject of the assay is Glycine max. Briefly: Inhibition of soybean 15-lipoxygenase.
As usually defined, the inhibition is the change of the read-out against control, counted positive when it falls. The low end stands for a weak effect, the high end for a strong effect. Consider `COc1cc(C(=O)O)ccc1O`, for which the inhibition came to 45.4%.

Regarding `O=C(O)c1ccc(O)cc1`, the inhibition stood at 47.6%.

In turn, `O=C(O)c1cc(O)c(O)c(O)c1` yielded an inhibition of 60.5%.

As for `O=C(O)c1ccc(O)c(O)c1`, the inhibition was 73.3%.

`O=C(O)/C=C/c1ccc(O)c(O)c1` displayed an inhibition of 36.2%.

Regarding `O=C(O)c1ccc(O)cc1O`, the inhibition is 47.7%.

Compound `O=C(O)c1cccc(O)c1O` displayed an inhibition of 47%.

`O=C(O)c1cc(O)ccc1O` returned an inhibition of 49.9%.

`O=C(O)c1ccccc1O` came in with an inhibition of 48.4%.

In turn, `O=C(O)c1ccccc1` registered an inhibition of 51.6%.

For the compound `O=C(O)c1cc(O)cc(O)c1`, the inhibition was determined as 58.1%.

`O=C(O)c1c(O)cccc1O`: the inhibition was 21.2%.

The compound `O=C(O)c1cccc(O)c1` displayed an inhibition of 46%.
